Source: publication PMC4923583, “A Phase I/II Clinical Trial of Belinostat (PXD101) in Combination with Doxorubicin in Patients with Soft Tissue Sarcomas” (Sarcoma, 2016)
Several values for one entry are separate records, joined by “and”; a condition that tells them apart may be missing. Equal entries are not always repeated.

Legend:
[1] = system: patients with STS and other solid tumours; experiment: Dose escalation: maximum tolerated dose (MTD) and dose limiting toxicities (DLT); format: in vivo; settings: highest tested dose level (cohort 4)
Procedure: Belinostat was administered as a 30-minute intravenous infusion every 24 hours on days 1–5 and on day 5 in combination with doxorubicin, in a 3-week schedule, and doxorubicin was given after belinostat. The dose escalation schedule was as follows: belinostat 600 mg/m^2 and 50 mg/m^2 doxorubicin (cohort 1), 600 mg/m^2 and 75 mg/m^2 doxorubicin (cohort 2), 800 mg/m^2 and 75 mg/m^2 doxorubicin (cohort 3), and 1000 mg/m^2 and 75 mg/m^2 doxorubicin (cohort 4).
Patients who achieved clinical benefit from the treatment (objective response or stable disease) could continue belinostat treatment beyond cycle 6. If the maximum cumulative dose of doxorubicin 450 mg/m^2 was reached, the treatment would continue with belinostat as monotherapy. In the phase I part, at least 3 patients were treated at each dose level. If a DLT was found in one of 3 patients, the cohort was expanded to a total of 6 patients.
Adverse events were graded using the NCI common terminology criteria for adverse events (NCI-CTCAE) version 3.0. […]

[2] = system: solid tumours and haematological neoplasms; parameters: method as in PMID 18245542, PMID 18510700; settings: ref [10], [11], cited from earlier work
human tumour xenografts = settings: cited from earlier work
[3] = Pharmacokinetic analyses, plasma, cycle 1 day 4 and day 5
Procedure: (§1) The following PK parameters were determined: elimination half-life (t 1/2), maximum concentration (C max), time to maximum concentration (t max), area under the curve (AUC0−tlast and AUC∞), elimination rate constant (λz), and volume of distribution (V c and V ss). Blood sampling for belinostat alone was performed on cycle 1 day 4 (before treatment and 0 min, 5 min, 15 min, 30 min, 1 h, 2 h, 2 h 15 min, 2 h 30 min, 3 h, 4 h, 6 h, 8 h, and 24 h after treatment).

[4] = in vivo
Procedure: as §1

soft tissue sarcoma = settings: single-agent doxorubicin, ref [6], cited from earlier work

For O=C(/C=C/c1cccc(S(=O)(=O)Nc2ccccc2)c1)NO [belinostat], the “MTD of belinostat in combination with doxorubicin” value ([1]; 30-minute IV infusion days 1–5, 3-week schedule, doxorubicin on day 5) is listed as 1000 mg/m^2/d, the “Maximum tolerated dose (MTD), monotherapy” value ([2]; 5 consecutive days repeated in a 3-week schedule) is listed as 1000 mg/m^2/d and the “Duration of prolonged stable disease (SD) in 2 STS patients” value ([2]; belinostat monotherapy, one value per patient) is listed as 7 months and 14 months. For the same compound, the “Toxicity to the host mice” value (human tumour xenografts; mouse, in vivo) was “without apparent toxicity”, the “Growth of human tumour xenografts” value (human tumour xenografts; ref [9]) was “inhibits growth” and the clearance ([3]; 600 mg/m^2 Bel + 50 mg/m^2 doxorubicin, Day 5 (with doxorubicin), N: 1, individual parameter presented) was 1770 mL/min. The t last ([3]; Median (min–max), 600 mg/m^2 Bel + 50 mg/m^2 doxorubicin, Day 4 (Bel alone), N = 3) was 24.5 (22.4–24.6) h, the t last ([3]; Median (min–max), 600 mg/m^2 Bel + 50 mg/m^2 doxorubicin, Day 5 (with doxorubicin), N = 3) was 17.0 (17.0–20.1) h and the t last ([3]; Median (min–max), 600 mg/m^2 Bel + 75 mg/m^2 doxorubicin, Day 4 (Bel alone), N = 7) was 24.0 (8.55–24.5) h. The t last ([3]; Median (min–max), 600 mg/m^2 Bel + 75 mg/m^2 doxorubicin, Day 5 (with doxorubicin), N = 6) was 24.5 (16.2–24.7) h, the t last ([3]; Median (min–max), 800 mg/m^2 Bel + 75 mg/m^2 doxorubicin, Day 4 (Bel alone), N = 8) was 23.7 (8.47–24.6) h and the t last ([3]; Median (min–max), 800 mg/m^2 Bel + 75 mg/m^2 doxorubicin, Day 5 (with doxorubicin), N = 6) was 15.1 (8.50–24.6) h. The t last ([3]; Median (min–max), 1000 mg/m^2 Bel + 75 mg/m^2 doxorubicin, Day 4 (Bel alone), N = 21) was 8.65 (1.05–24.0) h, the t last ([3]; Median (min–max), 1000 mg/m^2 Bel + 75 mg/m^2 doxorubicin, Day 5 (with doxorubicin), N = 19) was 8.72 (8.50–24.7) h and the “Dose proportionality of pharmacokinetics” value ([3]; belinostat 600–1000 mg/m^2) was “dose-proportional pharmacokinetics”. For the same compound, the “Effect of coadministration of doxorubicin on belinostat exposure” value ([3]; day 5 vs day 4) was “no evidence that coadministration of doxorubicin had any effect”, the AUC(0-t) ([3]; human, plasma, intravenous, 600 mg/m^2, AUC0–tlast, 600 mg/m^2 Bel + 50 mg/m^2 doxorubicin, Day 4 (Bel alone), N = 3) was 10900 ng·h/mL and the AUC(0-t) ([3]; human, plasma, intravenous, 600 mg/m^2, AUC0–tlast, 600 mg/m^2 Bel + 75 mg/m^2 doxorubicin, Day 4 (Bel alone), N = 7) was 9670 ng·h/mL. For the same compound, the Cmax ([3]; human, plasma, intravenous, 600 mg/m^2, C max, 600 mg/m^2 Bel + 50 mg/m^2 doxorubicin, Day 4 (Bel alone), N = 3) was 21100 ng/mL, the Cmax ([3]; human, plasma, intravenous, 600 mg/m^2, C max, 600 mg/m^2 Bel + 75 mg/m^2 doxorubicin, Day 4 (Bel alone), N = 7) was 16800 ng/mL and the clearance ([3]; human, plasma, intravenous, 600 mg/m^2, CL, 600 mg/m^2 Bel + 75 mg/m^2 doxorubicin, Day 4 (Bel alone), N: 3) was 2150 mL/min. It also gave a Vd ([3]; human, plasma, intravenous, 600 mg/m^2, V ss, 600 mg/m^2 Bel + 75 mg/m^2 doxorubicin, Day 4 (Bel alone), N: 3) of 149 L, a half-life ([3]; human, plasma, intravenous, 600 mg/m^2, t 1/2, 600 mg/m^2 Bel + 75 mg/m^2 doxorubicin, Day 4 (Bel alone), N: 3) of 3.77 h and a Tmax ([3]; human, plasma, intravenous, 600 mg/m^2, t max, Median (min–max), 600 mg/m^2 Bel + 50 mg/m^2 doxorubicin, Day 4 (Bel alone), N = 3) of 0.533 h. It also gave a Tmax ([3]; human, plasma, intravenous, 600 mg/m^2, t max, Median (min–max), 600 mg/m^2 Bel + 75 mg/m^2 doxorubicin, Day 4 (Bel alone), N = 7) of 0.567 h, an AUC(0-t) ([3]; human, plasma, intravenous, 800 mg/m^2, AUC0–tlast, 800 mg/m^2 Bel + 75 mg/m^2 doxorubicin, Day 4 (Bel alone), N = 8) of 12200 ng·h/mL and a Cmax ([3]; human, plasma, intravenous, 800 mg/m^2, C max, 800 mg/m^2 Bel + 75 mg/m^2 doxorubicin, Day 4 (Bel alone), N = 8) of 21400 ng/mL. It also gave a clearance ([3]; human, plasma, intravenous, 800 mg/m^2, CL, 800 mg/m^2 Bel + 75 mg/m^2 doxorubicin, Day 4 (Bel alone), N: 4) of 2120 mL/min, a Vd ([3]; human, plasma, intravenous, 800 mg/m^2, V ss, 800 mg/m^2 Bel + 75 mg/m^2 doxorubicin, Day 4 (Bel alone), N: 4) of 107 L and a half-life ([3]; human, plasma, intravenous, 800 mg/m^2, t 1/2, 800 mg/m^2 Bel + 75 mg/m^2 doxorubicin, Day 4 (Bel alone), N: 4) of 1.91 h. It also gave a Tmax ([3]; human, plasma, intravenous, 800 mg/m^2, t max, Median (min–max), 800 mg/m^2 Bel + 75 mg/m^2 doxorubicin, Day 4 (Bel alone), N = 8) of 0.533 h, a half-life ([3]; human, plasma, intravenous, 1000 mg/m2, Geometric mean apparent elimination half-life (t 1/2), belinostat 600, 800 and 1000 mg/m^2, day 4 and day 5, range across groups) of 1.9 to 4.8 h and an AUC(0-t) ([3]; human, plasma, intravenous, 1000 mg/m^2, AUC0–tlast, 1000 mg/m^2 Bel + 75 mg/m^2 doxorubicin, Day 4 (Bel alone), N = 21) of 23100 ng·h/mL. It also gave a Cmax ([3]; human, plasma, intravenous, 1000 mg/m^2, C max, 1000 mg/m^2 Bel + 75 mg/m^2 doxorubicin, Day 4 (Bel alone), N = 21) of 41100 ng/mL, a clearance ([3]; human, plasma, intravenous, 1000 mg/m^2, CL, 1000 mg/m^2 Bel + 75 mg/m^2 doxorubicin, Day 4 (Bel alone), N: 18) of 1360 mL/min and a Vd ([3]; human, plasma, intravenous, 1000 mg/m^2, V ss, 1000 mg/m^2 Bel + 75 mg/m^2 doxorubicin, Day 4 (Bel alone), N: 18) of 51 L. The half-life ([3]; human, plasma, intravenous, 1000 mg/m^2, t 1/2, 1000 mg/m^2 Bel + 75 mg/m^2 doxorubicin, Day 4 (Bel alone), N: 18) was 1.48 h, the Tmax ([3]; human, plasma, intravenous, 1000 mg/m^2, t max, Median (min–max), 1000 mg/m^2 Bel + 75 mg/m^2 doxorubicin, Day 4 (Bel alone), N = 21) was 0.617 h and the AUC(0-t) ([3]; human, plasma, intravenous, AUC0–tlast, 600 mg/m^2 Bel + 50 mg/m^2 doxorubicin, Day 5 (with doxorubicin), N = 3) was 10400 ng·h/mL. It also gave an AUC(0-t) ([3]; human, plasma, intravenous, AUC0–tlast, 600 mg/m^2 Bel + 75 mg/m^2 doxorubicin, Day 5 (with doxorubicin), N = 6) of 10400 ng·h/mL, an AUC(0-t) ([3]; human, plasma, intravenous, AUC0–tlast, 800 mg/m^2 Bel + 75 mg/m^2 doxorubicin, Day 5 (with doxorubicin), N = 6) of 14600 ng·h/mL and an AUC(0-t) ([3]; human, plasma, intravenous, AUC0–tlast, 1000 mg/m^2 Bel + 75 mg/m^2 doxorubicin, Day 5 (with doxorubicin), N = 19) of 22100 ng·h/mL. The Cmax ([3]; human, plasma, intravenous, C max, 600 mg/m^2 Bel + 50 mg/m^2 doxorubicin, Day 5 (with doxorubicin), N = 3) was 18300 ng/mL, the Cmax ([3]; human, plasma, intravenous, C max, 600 mg/m^2 Bel + 75 mg/m^2 doxorubicin, Day 5 (with doxorubicin), N = 6) was 17400 ng/mL and the Cmax ([3]; human, plasma, intravenous, C max, 800 mg/m^2 Bel + 75 mg/m^2 doxorubicin, Day 5 (with doxorubicin), N = 6) was 26400 ng/mL. It also gave a Cmax ([3]; human, plasma, intravenous, C max, 1000 mg/m^2 Bel + 75 mg/m^2 doxorubicin, Day 5 (with doxorubicin), N = 19) of 37000 ng/mL, a clearance ([3]; human, plasma, intravenous, CL, 600 mg/m^2 Bel + 75 mg/m^2 doxorubicin, Day 5 (with doxorubicin), N: 3) of 1850 mL/min and a clearance ([3]; human, plasma, intravenous, CL, 800 mg/m^2 Bel + 75 mg/m^2 doxorubicin, Day 5 (with doxorubicin), N: 4) of 1520 mL/min. The clearance ([3]; human, plasma, intravenous, CL, 1000 mg/m^2 Bel + 75 mg/m^2 doxorubicin, Day 5 (with doxorubicin), N = 19) was 1420 mL/min, the Vd ([3]; human, plasma, intravenous, V ss, 600 mg/m^2 Bel + 50 mg/m^2 doxorubicin, Day 5 (with doxorubicin), N: 1, individual parameter presented) was 72.8 L and the Vd ([3]; human, plasma, intravenous, V ss, 600 mg/m^2 Bel + 75 mg/m^2 doxorubicin, Day 5 (with doxorubicin), N: 3) was 90.8 L. For the same compound, the Vd ([3]; human, plasma, intravenous, V ss, 800 mg/m^2 Bel + 75 mg/m^2 doxorubicin, Day 5 (with doxorubicin), N: 4) was 58.3 L, the Vd ([3]; human, plasma, intravenous, V ss, 1000 mg/m^2 Bel + 75 mg/m^2 doxorubicin, Day 5 (with doxorubicin), N = 19) was 57.6 L and the half-life ([3]; human, plasma, intravenous, t 1/2, 600 mg/m^2 Bel + 50 mg/m^2 doxorubicin, Day 5 (with doxorubicin), N: 1, individual parameter presented) was 2.53 h. The half-life ([3]; human, plasma, intravenous, t 1/2, 600 mg/m^2 Bel + 75 mg/m^2 doxorubicin, Day 5 (with doxorubicin), N: 3) was 4.83 h, the half-life ([3]; human, plasma, intravenous, t 1/2, 800 mg/m^2 Bel + 75 mg/m^2 doxorubicin, Day 5 (with doxorubicin), N: 4) was 2.14 h and the half-life ([3]; human, plasma, intravenous, t 1/2, 1000 mg/m^2 Bel + 75 mg/m^2 doxorubicin, Day 5 (with doxorubicin), N = 19) was 2.13 h. The Tmax ([3]; human, plasma, intravenous, t max, Median (min–max), 600 mg/m^2 Bel + 50 mg/m^2 doxorubicin, Day 5 (with doxorubicin), N = 3) was 0.567 h, the Tmax ([3]; human, plasma, intravenous, t max, Median (min–max), 600 mg/m^2 Bel + 75 mg/m^2 doxorubicin, Day 5 (with doxorubicin), N = 6) was 0.517 h and the Tmax ([3]; human, plasma, intravenous, t max, Median (min–max), 800 mg/m^2 Bel + 75 mg/m^2 doxorubicin, Day 5 (with doxorubicin), N = 6) was 0.533 h. The Tmax ([3]; human, plasma, intravenous, t max, Median (min–max), 1000 mg/m^2 Bel + 75 mg/m^2 doxorubicin, Day 5 (with doxorubicin), N = 19) was 0.633 h.

For COc1cccc2c1C(=O)c1c(O)c3c(c(O)c1C2=O)C[C@@](O)(C(=O)CO)C[C@@H]3O[C@H]1C[C@H](N)[C@H](O)[C@H](C)O1 [doxorubicin], the “MTD of doxorubicin in combination with belinostat” value ([1]; day 5, 3-week schedule) is listed as 75 mg/m^2, the “Effect of coadministration of belinostat on doxorubicin exposure” value [4] is listed as “no effect” and the “Neutropenia (all grades)” value (soft tissue sarcoma; G-CSF allowed) is listed as 37%. For the same compound, the Response rate (soft tissue sarcoma) was 14%, the half-life ([3]; human, plasma, intravenous) was 7.6 to 10.8 h and the Tmax ([3]; human, plasma, intravenous, 75 mg/m2, Median t max, doxorubicin 50 or 75 mg/m^2, day 5, range across groups) was 0.24 to 0.5 h.
